Measurements taken from patent publication US20080008774A1, “Use Of Plants, Plant Extracts And Nature-Identical Components From Plants To Affect The Rumen Fermentation And To Improve The Energy And Protein Retention Of Ruminants” (DSM IP ASSETS B.V., priority 2004, published 2008).

Experiments:
ruminal ciliate protozoa = assay: Bacteriolytic activity of ruminal ciliate protozoa (breakdown of 14C-leucine-labelled Selenomonas ruminantium in strained ruminal fluid); format: cell-based, sheep
Experimental: The rate of breakdown of [^14C]leucine-labelled Selenomonas ruminantium was determined by incubating strained ruminal fluid in vitro with labelled S. ruminantium in the presence of 5 mM unlabelled L-leucine as described previously (Wallace & McPherson, 1987). Under these conditions, the great majority of bacterial protein breakdown is caused by the ingestion and digestion of bacteria by ciliate protozoa. The samples were, unless stated otherwise, added at a concentration of 5 mg/ml. The sheep received a mixed grass hay:concentrate diet (Frumholtz et al., 1989).

ruminal digesta [1] = assay: Proteolytic activity of ruminal digesta, Method 1 (14C-casein); format: cell-based, sheep; conditions: 2.5 mg/ml, 1 h; value in absence of plant material = 100
Experimental: Method 1. Strained ruminal fluid from the same sheep was used to determine proteolytic activity using the ^14C-casein method of Wallace (1983). Samples were added to a final concentration of 2.5 mg/ml, and an incubation time of 1 h was used.

ruminal fermentation [2] = assay: Reading methods for general effects on fermentation (RPT, maize silage); format: cell-based, lactating dairy cows; conditions: Reading diet; for Cumulative gas, 24 h / Fermentation efficiency: control = 100; for Dry matter digestion: value in absence of plant material = 100
Experimental: A series of thirteen consecutive fermentations, one per week, was undertaken using the Reading Pressure Technique [RPT], to identify potential effects from including these test materials on the fermentation and degradation characteristics of a basal forage [maize silage]. All materials were examined in triplicate and at two inclusion levels [100 and 400 mg g^−1 DM substrate], with the exception of β-myrcene [10 and 40 mg g^−1 inclusion levels]. The maize silage was pre-dried and milled to pass a 2 mm screen. A total of 1.0 g blended substrate [silage plus substrate] was placed in each fermentation flask. Buffered incubation medium [90 ml] was then added, the flasks sealed and stored overnight at room temperature. Prior to inoculation with prepared rumen fluid, flask contents were raised to 39° C. Rumen fluid was obtained manually [hand-squeezed contents] prior to feeding [07.00 h] from two lactating dairy cows offered a maize/grass silage : concentrate [60:40] ration ad libitum. The fluid was filtered through two layers of muslin and held under CO2 at 39° C. until use. Ten ml prepared fluid was added to each flask and these incubated at 39° C. for the duration of the study. Six negative controls [buffered medium plus rumen fluid only] were included in each run to correct gas values and degradation residues for direct rumen fluid effects. In addition un-supplemented maize silage [1.0 g flask^−1] was included in all runs [six flasks per run]. Results within studies were expressed relative to the positive control values. Headspace gas pressure readings were obtained 2, 4, 6, 8, 10, 12, 14, 16, 18, 21 and 24 hours post-inoculation. Following the last measurement approximately 3.0 ml fermentation medium was sampled from each flask and bulked by test material/inclusion level and stored frozen [−20° C.] until later analysis for VFA composition using a Varian 3600 GC. Fermentation residues were recovered by filtering flask contents through 60 ml Gooch crucibles [porosity 1, 100 to 160 μm] under light vacuum. The residues were then dried [100° C. for 24 hours], weighed, ashed [500° C. overnight] and reweighed. The quantity of dry matter [DM] and organic matter [OM] determined were used to assess iDMD and iOMD [in vitro DM and OM degradation, respectively]. The extent [ml gas g^−1 OM incubated] and rate of fermentation gas release [ml h^−1] were generated using a previously derived quadratic function to convert pressure to volume. Feed fermentation efficiency [FE] was estimated as iDMD [g kg^−1]/cumulative gas [ml] release at 24 h post-inoculation. Statistical differences between treatment means and the positive control [maize silage alone] were assessed using Students T-test and significance declared at […].

ruminal fermentation [3] = assay: Hohenheim methods for general effects on fermentation (RPT, grass silage); format: cell-based, non-lactating Holstein cows; conditions: Hohenheim diet; amount in feed 10 %; control = 100
ruminal fermentation [4] = assay: León methods for general effects on fermentation (batch cultures); format: cell-based, sheep; conditions: Leon diet; amount in feed 10 %; 24 h; control = 100
Experimental: Rumen cannulated sheep fed on a diet consisting of 75% alfalfa hay and 25% barley (free access to vitamin-mineral supplements and water) were used as donors for rumen fluid. Rumen fluid was collected just before the morning meal. The substrate used for the batch cultures consisted of 50% alfalfa hay, 40% grass hay and 10% barley grain, milled in a hammer mill with a 1-mm screen. The amount of substrate used was 500 mg, and inclusion rate of the test plant was 10% (ca. 50 mg). Both were weighed into serum bottles, where 50 ml of buffered rumen fluid (containing 10 ml of filtered rumen fluid and 40 ml of the medium described by Goering & Van Soest, 1970) were dispensed an-aerobically. The bottles were sealed and incubated at 39° C. After 24 h of incubation, the ensuing measurements were recorded: • Total gas production (ml), using a pressure transducer and collecting the gas in a calibrated syringe. • pH in the incubation medium. • Volatile fatty acids concentration in the incubation medium, by GC (VFA was also measured at inoculation time to calculate VFA production after 24 h). • DM incubation residue, by filtering the bottle contents in sintered crucibles and weighing the residue after drying. Thereafter, the neutral detergent fibre (NDF) content of the residue was determined to calculate the amount of un-degraded NDF. From this, DM and NDF disappearance were estimated. Three replicates per plant were incubated, and blanks (no substrate no plant) and controls (500 mg substrate without any plant, and 550 mg substrate without any plant) were used.

ruminal digesta [5] = assay: Methane formation by ruminal digesta (León incubations, GC); format: cell-based, sheep
Experimental: A representative sample of the gas produced was taken for subsequent analysis. Sampling was conducted using special gas-tight glass syringes fitted with a valve allowing for sample locking and storage. The sample was collected directly from the headspace, after inserting the needle through the septum of the stopper, taking a sample in the syringe and closing the valve. This sample was collected after measuring total gas production, assuming that gas composition was the same in the gas released and in that remaining in the headspace. Methane concentration in the gas produced was determined by gas chromatography. The gas sample (300 to 500 μl) was injected directly from the gas-tight syringe to the corresponding port. The GC parameter settings used for the analysis were: • Instrument: Shimadzu GC-14B provided with a flame ionisation detector (FID) • Column: 2.3 meters length×2.1 mm internal diameter stainless steel column packed with 60/80 mesh Carboxen 1000 stationary phase • Carrier gas: Helium, flow rate (100 kPa), Constant flow mode • Temperatures: • Detector: FID. Temperature 200° C., Synthetic Air flow rate (50 kPa), H2 flow rate (50 kPa) • Injector: Temperature 200° C. • Column-oven: 170° C. […] The standard curve was established by plotting a linear regression of the standard quantities injected of methane versus the area of the peaks to obtain the response factor.

[6] = tested on: lactic acid producing bacteria; assay: Acidosis assay (pH and lactic acid, milled wheat grain, 48-h fermentation); format: cell-based, cows; conditions: 100 mg/g DM in milled wheat grain (β-myrcene 10 mg/g), control = 100
Experimental: A model was used in which the decrease in incubation medium pH and the concentration of lactic acid produced, relative to the controls over a 48-h fermentation period provided an indication of the ability of the test substrates to offset potential acidotic effects. In this study milled wheat grain [2 mm] was used as the basal substrate and the test materials included at 100 mg g^−1 DM [or 10 mg g^−1 DM β-myrcene]. As before 1.0 g total substrate was added to each flask. To enhance lactic acid production, the buffer solution prepared was diluted by 50 percent. This was to ensure that the buffering capacity of the incubation medium was exceeded and the resulting decrease in pH encouraged growth of Lactobacilli and other lactic acid producing bacteria. Rumen fluid was obtained and prepared as previously described except that the two cows used were offered an early lactation ration with a high level of coarse milled wheat. Fluid pH measurements were made one hour after inoculation [start pH] then after a further 23 and 47 hours, by inserting a pH electrode directly into each flask. Immediately following the last measurement approximately 3.0 ml fluid were taken from each flask, bulked by sample and stored frozen at −20° C. until analyzed enzymatically for L [+] lactic acid. Results are presented as absolute differences relative to the controls. […]

[7] = amount in feed 10 % (β-myrcene 10 mg/g)
[8] = amount in feed 40 % (β-myrcene 40 mg/g)

Compound: C=CC(=C)CCC=C(C)C [Sample 13, β-Myrcene]
- bacteriolytic activity of ciliate protozoa / protozoal activity (in words) (ruminal ciliate protozoa): moderate inhibiting effect
- Protozoal activity (ruminal ciliate protozoa; 5 mg/ml, value in absence of plant material = 100): 68
- Proteolysis, Method 1 (ruminal digesta [1]): 110
- Cumulative gas, 24 h (ruminal fermentation [2]; [7]): 100
- Fermentation efficiency (ruminal fermentation [2]; [7]): 103
- Dry matter digestion (ruminal fermentation [2]; [7]): 103
- Cumulative gas, 24 h (ruminal fermentation [2]; [8]): 82
- Fermentation efficiency (ruminal fermentation [2]; [8]): 109
- Dry matter digestion (ruminal fermentation [2]; [8]): 89
- C3/C2 (ruminal fermentation [3]): 104
- Digestibility (ruminal fermentation [3]): 100
- Fermentation efficiency (ruminal fermentation [3]): 99
- Gas production (ruminal fermentation [3]): 101
- SCFA (ruminal fermentation [3]): 103
- App. digestibility (ruminal fermentation [4]): 93
- C3/C2 (ruminal fermentation [4]): 105
- Digestibility (ruminal fermentation [4]): 102
- Fermentation efficiency (ruminal fermentation [4]): 109
- Gas production (ruminal fermentation [4]): 97
- Microbial biomass (ruminal fermentation [4]): 115
- TVFA (ruminal fermentation [4]): 96
- methane production / methanogenic activity (in words) (ruminal digesta [5]): decrease
- Methane formation, Leon (ruminal digesta [5]; 10% of feed, value in absence of plant material = 100): 90
- Acidity, 24 h ([6]; 24 h): 105
- Acidity, 48 h ([6]; 48 h): 115
